Our source for the T/C values is PubChem BioAssay AID342 (DTP/NCI, 2004).

The assay deals with Swiss mice, Sarcoma 180 sc, mean tumor weight T/C. Kind of assay: NCI In Vivo Anticancer Drug Screen. Data for tumor model Sarcoma 180 (subcutaneous) in Swiss mice. Conditions: endpoint: mean tumor weight, higher = larger tumour. How it is done:
The antitumor activity of compounds was measured in mice bearing transplantable tumors. Survival or tumor size were measured and the results are expressed as the measurement made in the treated group (T) divided by the measurement made in the vehicle treated control group (C). The tumor model used in this assay is Sarcoma 180 (subcutaneous) in Swiss mice

Setting [1] is: dose: 25.0 mg/kg/injection, schedule: Q01DX007 (ip), vehicle: carboxymethylcellulose (CMC).
Setting [2] is: dose: 25.0 mg/kg/injection, schedule: Q01DX007 (ip), vehicle: saline.
Setting [3] is: dose: 50.0 mg/kg/injection, schedule: Q01DX007 (ip), vehicle: saline.
[4] abbreviates: dose: 100.0 mg/kg/injection, schedule: Q01DX007 (ip), vehicle: saline.
[5] abbreviates: dose: 200.0 mg/kg/injection, schedule: Q01DX007 (ip), vehicle: saline.
Setting [6] is: dose: 2.5 mg/kg/injection, schedule: Q01DX007 (sc), vehicle: steriod suspending solution.
Setting [7] is: dose: 5.0 mg/kg/injection, schedule: Q01DX007 (sc), vehicle: steriod suspending solution.
[8] abbreviates: dose: 10.0 mg/kg/injection, schedule: Q01DX007 (sc), vehicle: steriod suspending solution.

SMILES strings stand for the structures. “And” between values parts separate entries of the source, which are not always exact repeats. Identical values can stand only once.

As to `Cn1c(=O)c2[nH]cnc2n(C)c1=O`, the T/C by setting is: (dose: 20.43 mg/kg/injection, schedule: Q01DX007 (ip), vehicle: carboxymethylcellulose (CMC)) 75 % of control; (dose: 40.87 mg/kg/injection, schedule: Q01DX007 (ip), vehicle: carboxymethylcellulose (CMC)) 103 % of control; (dose: 81.75 mg/kg/injection, schedule: Q01DX007 (ip), vehicle: carboxymethylcellulose (CMC)) 70 % of control; (dose: 163.5 mg/kg/injection, schedule: Q01DX007 (ip), vehicle: carboxymethylcellulose (CMC)) 113 % of control.

As to `CN(CCO)/N=N/c1nc[nH]c1C(N)=O`, the T/C is, setting by setting: (dose: 125.0 mg/kg/injection, schedule: Q01DX007 (ip), vehicle: carboxymethylcellulose (CMC)) 73 % of control; (dose: 250.0 mg/kg/injection, schedule: Q01DX007 (ip), vehicle: carboxymethylcellulose (CMC)) 78 % of control.

Turning to `Cc1cc(N)c2cc(NC(=O)/C=C\c3ccccc3Cl)ccc2n1`, the T/C (dose: 11.0 mg/kg/injection, schedule: Q01DX007 (ip), vehicle: carboxymethylcellulose (CMC)) is 89 % of control; the T/C (dose: 17.0 mg/kg/injection, schedule: Q01DX007 (ip), vehicle: carboxymethylcellulose (CMC)) was 77 % of control; the T/C under setting [1] is 46 % of control.

For the compound `Cc1ccc(S(=O)(=O)N=S2CCCC2)cc1`, the T/C was 90 % of control (dose: 111.0 mg/kg/injection, schedule: Q#A X014 (ip), vehicle: water); 107 % of control (dose: 166.5 mg/kg/injection, schedule: Q#A X014 (ip), vehicle: water); 91 % of control (dose: 250.0 mg/kg/injection, schedule: Q#A X014 (ip), vehicle: water); 66 % of control (dose: 375.0 mg/kg/injection, schedule: Q#A X014 (ip), vehicle: water).

On to `O=C1NC(=O)C2(CCCc3ccc(N(CCCl)CCCl)cc32)N1` (configuration not stated), for which the T/C (dose: 16.0 mg/kg/injection, schedule: Q01DX007 (ip), vehicle: other) is 70 % of control; the T/C (dose: 16.0 mg/kg/injection, schedule: Q01DX007 (ip), vehicle: saline) is 67 % of control; the T/C (dose: 24.0 mg/kg/injection, schedule: Q01DX007 (ip), vehicle: other) is 107 % of control; the T/C (dose: 24.0 mg/kg/injection, schedule: Q01DX007 (ip), vehicle: saline) was 85 % of control; the T/C (dose: 36.0 mg/kg/injection, schedule: Q01DX007 (ip), vehicle: other) was 61 % of control; the T/C (dose: 36.0 mg/kg/injection, schedule: Q01DX007 (ip), vehicle: saline) was 75 % of control. Moreover, the T/C (dose: 55.0 mg/kg/injection, schedule: Q01DX007 (ip), vehicle: saline) is 52 % of control; the T/C (dose: 125.0 mg/kg/injection, schedule: Q01DX007 (ip), vehicle: saline) is 29 % of control; the T/C (dose: 188.0 mg/kg/injection, schedule: Q01DX007 (ip), vehicle: other) is 65 % of control; the T/C (dose: 282.0 mg/kg/injection, schedule: Q01DX007 (ip), vehicle: other) was 80 % of control; the T/C (dose: 423.0 mg/kg/injection, schedule: Q01DX007 (ip), vehicle: other) was 81 % of control.

For `Nc1ncnc2nc[nH]c12`, the T/C runs as follows: under setting [2], 104 % of control; under setting [3], 87 % of control; under setting [4], 119 % of control; under setting [5], 57 % of control.

On to `Cc1cc(N(CCCl)CCCl)ccc1C=Nc1ccccc1-c1ccccc1`, for which the T/C under setting [2] is 100 % of control, the T/C under setting [3] was 96 % of control, the T/C under setting [4] is 105 % of control and the T/C under setting [5] is 73 % of control.

`CC(C)[C@]1(O)CC[C@H]2[C@@H]3CCc4cc(O)ccc4[C@H]3CC[C@@]21C`: the T/C runs as follows: under setting [6], 92 % of control; under setting [7], 60 % of control; under setting [8], 95 % of control.

In the case of `CC(=O)Nc1cc2oc3ccccc3c2cc1[N+](=O)[O-]`, the T/C is, setting by setting: (dose: 220.0 mg/kg/injection, schedule: Q01DX007 (ip), vehicle: methylcellulose (MC)) 67 % of control; (dose: 335.0 mg/kg/injection, schedule: Q01DX007 (ip), vehicle: methylcellulose (MC)) 67 % of control; (dose: 400.0 mg/kg/injection, schedule: Q01DX007 (ip), vehicle: methylcellulose (MC)) 72 % of control; (dose: 500.0 mg/kg/injection, schedule: Q01DX007 (ip), vehicle: methylcellulose (MC)) 52 % of control; (dose: 600.0 mg/kg/injection, schedule: Q01DX007 (ip), vehicle: methylcellulose (MC)) 77 % of control.

Turning to `O=CNC(Cc1ccc(N(CCCl)CCCl)cc1)C(=O)O` (configuration not stated), the T/C runs as follows: (dose: 22.0 mg/kg/injection, schedule: Q#A X014 (ip), vehicle: methylcellulose (MC)) 61 % of control; (dose: 33.0 mg/kg/injection, schedule: Q#A X014 (ip), vehicle: methylcellulose (MC)) 60 % of control; (dose: 50.0 mg/kg/injection, schedule: Q#A X014 (ip), vehicle: methylcellulose (MC)) 25 % of control; (dose: 75.0 mg/kg/injection, schedule: Q#A X014 (ip), vehicle: methylcellulose (MC)) 11 % of control.

In the case of `CCOC(=O)Sc1ncnc2nc[nH]c12`, the T/C (dose: 1.7 mg/kg/injection, schedule: Q01DX007 (ip), vehicle: carboxymethylcellulose (CMC)) was 109 % of control; the T/C (dose: 3.5 mg/kg/injection, schedule: Q01DX007 (ip), vehicle: carboxymethylcellulose (CMC)) is 84 % of control; the T/C (dose: 7.0 mg/kg/injection, schedule: Q01DX007 (ip), vehicle: carboxymethylcellulose (CMC)) was 102 % of control; the T/C (dose: 14.0 mg/kg/injection, schedule: Q01DX007 (ip), vehicle: carboxymethylcellulose (CMC)) is 41 % of control; the T/C (dose: 28.0 mg/kg/injection, schedule: Q01DX007 (ip), vehicle: carboxymethylcellulose (CMC)) is 46 % of control; the T/C (dose: 44.0 mg/kg/injection, schedule: Q01DX007 (ip), vehicle: carboxymethylcellulose (CMC)) was 56 % of control. For the same compound, the T/C is 30 % of control (dose: 56.0 mg/kg/injection, schedule: Q01DX007 (ip), vehicle: carboxymethylcellulose (CMC)); 61 % of control (dose: 66.0 mg/kg/injection, schedule: Q01DX007 (ip), vehicle: carboxymethylcellulose (CMC)); 35 % of control (dose: 100.0 mg/kg/injection, schedule: Q01DX007 (ip), vehicle: carboxymethylcellulose (CMC)); 22 % of control (dose: 112.0 mg/kg/injection, schedule: Q01DX007 (ip), vehicle: carboxymethylcellulose (CMC)); 30 % of control (dose: 150.0 mg/kg/injection, schedule: Q01DX007 (ip), vehicle: carboxymethylcellulose (CMC)).

As to `C[C@]12CC[C@H](O)C[C@H]1CC[C@@H]1[C@@H]2CC[C@]2(C)[C@@H](C3=CC(=O)OC3)CC[C@]12O`, the T/C (dose: 5.0 mg/kg/injection, schedule: Q01DX007 (ip), vehicle: carboxymethylcellulose (CMC)) was 79 % of control; the T/C (dose: 10.0 mg/kg/injection, schedule: Q01DX007 (ip), vehicle: carboxymethylcellulose (CMC)) was 68 % of control; the T/C under setting [1] is 86 % of control.

Consider `C[C@]12C=CC(=O)C=C1CC[C@@H]1[C@@H]2CC[C@]2(C)OC(=O)CC[C@@H]12`, for which the T/C by setting is: (dose: 250.0 mg/kg/injection, schedule: Q01DX007 (sc), vehicle: steriod suspending solution) 74 % of control and 99 % of control; (dose: 500.0 mg/kg/injection, schedule: Q01DX007 (sc), vehicle: steriod suspending solution) 83 % of control and 105 % of control.

Take `NNC(=O)c1ccncc1`: the T/C is 112 % of control (dose: 7.5 mg/kg/injection, schedule: Q#A X014 (ip), vehicle: carboxymethylcellulose (CMC)); 105 % of control (dose: 15.0 mg/kg/injection, schedule: Q#A X014 (ip), vehicle: carboxymethylcellulose (CMC)); 101 % of control (dose: 30.0 mg/kg/injection, schedule: Q#A X014 (ip), vehicle: carboxymethylcellulose (CMC)); 74 % of control (dose: 60.0 mg/kg/injection, schedule: Q#A X014 (ip), vehicle: carboxymethylcellulose (CMC)).

In the case of `CC(=O)OCC(=O)[C@@]1(O)CC[C@H]2[C@@H]3C[C@H](F)C4=CC(=O)CC[C@]4(C)[C@H]3C(=O)C[C@@]21C`, the T/C by setting is: under setting [6], 60 % of control; under setting [7], 49 % of control; under setting [8], 51 % of control; (dose: 19.0 mg/kg/injection, schedule: Q01DX007 (sc), vehicle: steriod suspending solution) 41 % of control; (dose: 29.0 mg/kg/injection, schedule: Q01DX007 (sc), vehicle: steriod suspending solution) 31 % of control.

For `C=CCOc1ccc2c(c1)CC[C@@H]1[C@@H]2CC[C@]2(C)[C@@H](O)[C@H](O)C[C@@H]12`, the T/C reads like this: under setting [6], 105 % of control; under setting [7], 120 % of control; under setting [8], 82 % of control.
